Columns and labels:
[1] = additional release experiments with dexamethasone salts in different bioactive releasing membrane combinations; assay type: physicochemical; settings: in a water-soluble cellulosic based polymer
Protocol: Additional experiments were carried out using dexamethasone salts in different bioactive releasing membrane combinations.

[2] = in vitro bioactive release profile of dexamethasone acetate from bioactive releasing membrane 70 (percent cumulative release by HPLC); assay type: physicochemical; settings: over a time span of 16-35 days
Protocol: With reference to FIG. 5A, an exemplary in vitro bioactive release profiles for dexamethasone acetate is shown using exemplary bioactive releasing membrane 70. The percent cumulative release of dexamethasone acetate can be determined using HPLC, for example using a Phenomenex Kinetex 5μ EVO C18 100 Å, 50×3.0 mm column held at 25° C. with a 254 nm UV detector and an elution gradient of A: Water with 0.1% formic acid/B: Acetonitrile with 0.1% formic acid (vol/vol), where the gradient from time 0 to 2 minutes is 90% A/10% B; from 2-5 minutes is 10% A/90% B; and from 5 minutes is 90% A/10% B. Dexamethasone acetate and dexamethasone HPLC standards are prepared at concentrations of about 0.1-20 ug/mL.
With reference to FIG. 5B, experimental data of a release rate of a bioactive agent (dexamethasone acetate) from a bioactive releasing membrane 70 initially or during the first time period being greater than the release rate of the bioactive agent from the bioactive releasing membrane initially or during the second time period and the release rate of the bioactive agent from the bioactive releasing membrane initially or during the second time period is greater than the release rate of the bioactive agent from the bioactive releasing membrane initially or during the third time period is shown. […]

Row | Structure (SMILES) | release profile [1] | third release rate: release of the remaining amount [2]
1 | C[C@@H]1C[C@H]2[C@@H]3CCC4=CC(=O)C=C[C@]4(C)[C@@]3(F)[C@@H](O)C[C@]2(C)[C@@]1(O)C(=O)COP(=O)(O)O [dexamethasone sodium phosphate] | bolus release profile | –
2 | CC(=O)OCC(=O)[C@@]1(O)[C@H](C)C[C@H]2[C@@H]3CCC4=CC(=O)C=C[C@]4(C)[C@@]3(F)[C@@H](O)C[C@@]21C [dexamethasone acetate] | – | approximately 10%

Reference: US20230073214A1, “BIOACTIVE RELEASING MEMBRANE FOR ANALYTE SENSOR” (DexCom, Inc., priority 2021, published 2023)
